Laboratory results as given in patent US10995054B2, “Hyperpolarized [3-13C]acetoacetate and methods of using the same” (Agency for Science, Technology and Research, priority 2016, dated 2021).
Several values for one entry are separate records, joined by “and”; a condition that tells them apart may be missing. Equal entries are not always repeated. Where two headings read alike, the source gives them in different places.

Key:
[1] = tested on: blood glucose; assay: Intraperitoneal insulin tolerance test (IpITT); type: in vivo, rat; conditions: diabetic GK rats, insulin 1 U/kg i.p.
Method: The response to insulin glucose tolerance was determined by measuring the blood glucose levels before and at 60, 120, 180, 240, 300, and 360 minutes after intraperitoneal injection of insulin solution (1 U/kg body weight).

[2] = tested on: myocardial infarct; conditions: fasted rats, ischemia-reperfusion; cited from earlier work
[3] = Hyperpolarization (DNP) and lifetime of [3-13C]acetoacetate; type: physicochemical
Method: Approximately 51 mg of [3-^13C]acetoacetate, doped with 5.5 mg of trityl-radical (OX063, GE Healthcare), 250 μl of gadoterate meglumine (1.2 mmol/L, Dotarem®, Guerbet) and […] of DMSO (25% v/v) was prepared. Total volume is approximately […], resulting in 1.23 mol/L of [3-^13C]acetoacetate, 9.3 mmol/L of OX063, and 0.80 mmol/L of gadolinium. […] of the sample was hyperpolarized in a polarizer (Hypersense, Oxford Instruments, Oxford, UK), with 120 min of microwave irradiation at 94.097 GHz. The polarized sample was subsequently dissolved in 3 mL of pressurized and heated Tris-EDTA buffer with pH 7.80, to yield a solution of 80 mmol/L hyperpolarized [3-^13C]acetoacetate with a polarization of 10% and physiological temperature and pH.
The Examiner first determined whether the synthesized [3-^13C]acetoacetate can be hyperpolarized with sufficient polarization and lifetime for in vivo application. After 120 minutes of microwave irradiation at 1.2 K, the achieved polarization was 10.3±1.2% and T1 was 28.2±3.1 s. Besides the main substrate peak at 209.9 ppm and the natural abundance [1-^13C]acetoacetate at 174.6 ppm, an impurity peak was detected at 181.0 ppm. The amplitude of the impurity peak is 0.19±0.01% of the [3-^13C]acetoacetate signal. The impurity peak is very close to the expected [5-^13C]glutamate peak at 181.2 ppm (FIG. 2B). […]

[4] = tested on: myocardial ketone body utilization; assay: Ketone body utilization in the heart in vivo measured by hyperpolarized 13C-MRS; parameters: species or system rat
Description: Male non-obese diabetic Goto-Kakizaki (GK/MolTac; n=10) rats bred by Taconic (New York, US) were ordered from InVivos (Singapore). Male wild-type Wistar Han rats (n=10) were purchased from InVivos (Singapore) and served as controls. At 24 weeks of age, the animals underwent ^13C MRS and MRI to determine myocardial ketone body utilization and cardiac function. The animals were anaesthetized with isoflurane (3% for induction; 1.5-2% for maintenance) in medical air and oxygen at a flow rate of 2.0 L/min and 0.5 L/min, respectively. A catheter was inserted into the tail vein for intravenous administration of the hyperpolarized [3-^13C] acetoacetate inside the MRI scanner. At the end of the study, the animals were sacrificed. Blood and organs were collected and stored at −80° C. for biochemical analysis. All procedures involving animals were approved by A*STAR Institutional Animal Care and Use Committee (#171204)
Rats were positioned supine in a 9.4 T horizontal bore MR scanner interfaced to a Avance III HD console (Biospec, Bruker, Germany), with the heart directly above a dual-tuned (^1H/^13C) rat surface coil (diameter: 30 mm). Correct positioning was confirmed by the acquisition of an axial proton FLASH image (TE/TR, 8.0/100.0 ms; matrix size, 128×128; FOY, 40×40 mm; slice thickness, 1.5 mm; excitation flip angle, 30°). A cardiac-triggered and respiratory-gated shim was used to reduce the proton linewidth to approximately 160 Hz. Immediately before injection, a respiratory-gated ^13C MR pulse-acquire spectroscopy sequence was initiated. Then, hyperpolarized [3-^13C]acetoacetate (0.75-1.05 mL; 0.240 mmol/kg body weight) was injected via tail vein at a rate of 6 mL/min. Sixty individual heart spectra were acquired over 2 minutes after injection (TR, 2 s; excitation flip angle, 25°; sweep width, 8,000 Hz; acquired points, 4,096; frequency centered at 190 ppm from tetramethylsilane (TMS) standard).
Cardiac ^13C MR spectra were analyzed using the AMARES algorithm as implemented in the jMRUI software package (Naressi A, et al. Magn Reson Mater Physics, Biol Med. 2001; 12:141). Spectra were baseline and DC offset-corrected based on the last half of acquired points. To quantify myocardial ketone metabolism, spectra were summed over the first 30 seconds upon acetoacetate arrival. Peaks corresponding to [3-^13C]acetoacetate and its metabolic derivatives [5-^13C]glutamate, [1-^13C]acetoacetate, and [1-^13C]acetylcarnitine were fitted with prior knowledge assuming a Lorentzian line shape, peak frequencies, relative phases, and linewidths. The fitted amplitudes were then normalized to the amplitude of [3-^13C]acetoacetate.

[5] = 0.240 mmol/kg i.v.
[6] = biological target: T1, sodium/glucose co-transporter-2 (SGLT-2) (Homo sapiens, UniProt P31639); conditions: cited from earlier work
T1 construct: host or cells: diabetic patients (in vivo)
T1 sequence (P31639 1-672): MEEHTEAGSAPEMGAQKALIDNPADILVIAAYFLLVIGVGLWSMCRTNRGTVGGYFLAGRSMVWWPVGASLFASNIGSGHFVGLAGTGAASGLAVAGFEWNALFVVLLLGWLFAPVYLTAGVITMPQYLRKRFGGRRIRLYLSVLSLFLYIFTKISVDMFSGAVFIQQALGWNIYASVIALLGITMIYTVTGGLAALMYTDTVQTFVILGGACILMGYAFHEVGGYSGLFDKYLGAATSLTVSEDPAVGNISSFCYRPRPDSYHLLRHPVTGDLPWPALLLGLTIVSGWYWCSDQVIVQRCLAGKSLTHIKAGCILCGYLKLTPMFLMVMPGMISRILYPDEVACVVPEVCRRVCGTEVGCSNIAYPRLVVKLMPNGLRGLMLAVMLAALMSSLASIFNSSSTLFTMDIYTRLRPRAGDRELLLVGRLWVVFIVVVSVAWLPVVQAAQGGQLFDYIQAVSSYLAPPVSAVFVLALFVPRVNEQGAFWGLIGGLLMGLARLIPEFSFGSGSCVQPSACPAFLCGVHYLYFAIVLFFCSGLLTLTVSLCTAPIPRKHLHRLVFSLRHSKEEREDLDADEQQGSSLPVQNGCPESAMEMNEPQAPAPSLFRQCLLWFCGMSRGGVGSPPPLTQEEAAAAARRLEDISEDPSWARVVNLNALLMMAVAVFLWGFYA

[7] = tested on: insulin secretion; conditions: infusion in man, concentration higher than 2 mM; cited from earlier work
[8] = diabetic GK vs control rats, P=0.002
[9] = rat heart, i.v., 13C MRS time resolution 2 s

Compound: insulin: insulin solution injected intraperitoneally in the insulin tolerance test
- blood glucose during insulin tolerance test [1]: lowered blood glucose

Compound: CC(O)CC(=O)O (stereo not drawn) [β-OHB, β-hydroxybutyrate]
- myocardial infarct size and apoptosis [2]: reduced myocardial infarct size and apoptosis

Compound: C[13C](=O)CC(=O)[O-].[Li+] [[3-^13C]acetoacetate, lithium [3-^13C]acetoacetate]
- achieved polarization ([3]; 120 min microwave irradiation at 1.2 K, DNP): 10.3±1.2% and 10%
- T1 ([3]; after 120 min microwave irradiation at 1.2 K): 28.2 ± 3.1 s
- production of [3-13C]β-OHB ([4]; diabetic GK vs control rats, P=0.001): lower in diabetic rats than in control rats
- production of [5-13C]glutamate [4, 8]: higher in the diabetic rats than in controls
- total production of [5-13C]glutamate+[1-13C]citrate [4, 8]: also higher in the diabetic rats compared with controls
- total products of ketone body utilization ([5-13C]glutamate+[1-13C]acetylcarnitine) ([4]; diabetic GK vs control rats, normalized to [3-13C]acetoacetate, P=0.009): higher in the diabetic rats compared with controls
- [5-13C]glutamate metabolite signal, relative to [3-13C]acetoacetate signal ([4]; rat heart in vivo, i.v. injection): 2-4 % of the [3-13C]acetoacetate s
- appearance of 13C label in [1-13C]acetylcarnitine and [5-13C]glutamate after acetoacetate peaks [4, 9]: 2 to 4 s
- appearance of [1-13C]citrate [4, 9]: 8 to 10 s
- calculated acetoacetate concentration in the blood after injection ([5]; GK rats): 4.30 mM
- calculated acetoacetate concentration in the blood after injection ([5]; control rats): 4.27 mM

Compound: OC[C@H]1O[C@@H](c2ccc(Cl)c(Cc3ccc(O[C@H]4CCOC4)cc3)c2)[C@H](O)[C@@H](O)[C@@H]1O [empagliflozin]
- plasma ketone body concentration ([6]; after empagliflozin treatment): increase in plasma ketone body concentration
- cardiovascular outcome ([6]; diabetic patients): improved cardiovascular outcome

Compound: CC(=O)CC(=O)O [acetoacetate]
- effect on insulin secretion [7]: transient stimulatory effect on insulin secretion
- time after which the effect on insulin secretion abates [7]: 10 to 15 min
